Results on 13 compounds are retold here after patent US10464918B2, “Process of making somatostatin modulators” (Crinetics Pharmaceuticals, Inc., priority 2018, dated 2019).

In general, EC50 refers to the concentration giving half of the maximal effect. A word on the solubility: it is the concentration that dissolves in the medium under given conditions.

Data set [1] has as its target human SSTR2 (Homo sapiens (Human), UniProt P30874). Kind of data set: Functional cAMP assay for SSTR2 agonists. The data set is classed as cell-based. As to conditions: inhibition of cAMP activities via human SST2R; CHO-K1 cells stably expressing human SSTR2. Here is the method: General overview: All five SSTR subtypes are Gi coupled G-protein coupled receptors (GPCRs) that lead to decreases in intracellular cyclic AMP (cAMP) when activated by an agonist. […] Human SSTR2 intracellular cAMP assay is described below. The human SSTR1, 3, 4 and 5 assays follow the same protocol of SSTR2.
The cells are cultured at 37° C., 5% CO2 and 95% humidity. […] The cells are incubated for 20 minutes at 37° C. […] The cells are treated with 50 μL of lysis buffer (HRTF cAMP kit, Cisbio). The lysate is transferred to 384-well plates and cAMP detection and visualization antibodies are added and incubated for 1-24 hours at room temperature. The time-resolved fluorescent signal is read with a Tecan M1000Pro multiplate reader. The intracellular cAMP concentrations are calculated by regression to a standard curve and are plotted vs. the concentration of the compounds of the invention and the EC50 of the compounds are calculated using standard methods. All data manipulations are in GraphPad Prism v6.
On the technique in general: cAMP levels reflect the balance of adenylyl cyclase and phosphodiesterase activity.

The nature of data set [2]: Solubility in water, FaSSGF and FaSSIF (slurry, HPLC). The data set is classed as physicochemical. Particulars: slurried at 37° C. for 2 days; for solubility at 2 days: 37 °C, thermodynamic from solid. Here is the method:
The salt forms were slurried in water, Fasted State Simulated Gastric Fluid (FaSSGF), and Fasted State Simulated Intestinal Fluid (FaSSIF) at 37° C. for 2 days. Part of the slurry was filtered using a […] syringe filter to recover the supernatant for solubility measurement and the rest was filtered to recover the remaining solid for XRPD analysis.
A calibration curve was developed for measuring concentration via HPLC. Compound A was added to a 100 mL volumetric flask and then filled to the volume with HPLC grade ethanol. […] A 30 minute gradient method with Solvent A as water with 0.1% TFA and solvent B as Methanol:Acetonitrile (1:1) was used.
The calibration correlation was used to measure the solubility of the salt forms. From the clear saturated solution, 0.1 mL liquid was transferred into a 10 mL vial and then filled to the volume with methanol. The solution was then directly injected into the HPLC.

Data set [3] is described as follows: Dynamic Vapor Sorption (DVS). It counts as physicochemical. As to conditions: for XRPD after DVS analysis: DVS between 2 and 95% RH. The protocol: Dynamic Vapor Sorption (DVS) was done using a DVS Intrinsic 1. The sample is loaded into a sample pan and suspended from a microbalance. A typical sample mass for DVS measurement is 25 mg. Nitrogen gas bubbled through distilled water provides the desired relative humidity.
A typical measurement includes the steps: • 1—Equilibrate at 50% RH • 2—50% to 2%. (50%, 40%, 30%, 20%, 10% and 2%) • a. Hold minimum of 5 mins and maximum of 60 minutes at each humidity. The pass criteria is less than 0.002% change • 3—2% to 95% (2%, 10%, 20%, 30%, 40%, 50%, 60%, 70%, 80%, 90%, 95%) • a. Hold minimum of 5 mins and maximum of 60 minutes at each humidity. The pass criteria is less than 0.002% change • 4—95% to 2% (95%, 80%, 70%, 60%, 50%, 40%, 30%, 20%, 10%, 2%) • a. Hold minimum of 5 mins and maximum of 60 minutes at each humidity. The pass criteria is less than 0.002% change • 5—2% to 50% (2%, 10%, 20%, 30%, 40%, 50%) • a. Hold minimum of 5 mins and maximum of 60 minutes at each humidity. The pass criteria is less than 0.002% change

Data set [4] is described as follows: Thermal study (TGA/DSC heating followed by XRPD). Particulars: heated by TGA/DSC, cooled to RT. The data set is classed as physicochemical. The protocol: Differential Scanning calorimetry (DSC) was done using a Mettler Toledo DSC3+. Aluminum crucible with cramped pinned lid were used. The heating rates are usually 10° C. per minute from 30 to 250° C. Thermogravimetric Analysis (TGA) was done using a Mettler Toledo TGA/DSC3+. Aluminum crucible with cramped pinned lid were used. The heating rates are usually 10° C. per minute from 30 to 250° C. […] These peaks were evaluated using thermal analysis and XRPD techniques. Compound A-HCl was heated to various temperatures using TGA/DSC followed by cooling to room temperature and analysis using XRPD. […] The following thermal treatments were performed: Sample 1: heated the salt to 100° C. and cooled to RT followed by XRPD; Sample 2: heated the salt to 150° C. and cooled to RT followed by XRPD; Sample 3: heated the salt to 200° C. and cooled to RT followed by XRPD; Sample 4: heated the salt to 250° C. and cooled to RT followed by XRPD; and Sample 5: heated the salt to 295° C. and cooled to RT followed by XRPD.

The mark [5] stands for this setting: Fasted State Simulated Gastric Fluid (FaSSGF), fassgf or other biorelevant, Fasted State Simulated Gastric Fluid, read-out: Solubility in FaSSGF.
The mark [6] stands for this setting: Fasted State Simulated Intestinal Fluid (FaSSIF), fassif, Fasted State Simulated Intestinal Fluid, read-out: Solubility in FaSSIF.

In brackets after ≈: the same amount, converted by molar mass. Counter-ions that a name gives are not always drawn. Like-named read-outs stand apart in the source and are kept apart here. Where only a bound is given, the exact number is not on record here.

Sequence of human SSTR2 (P30874 whole entry): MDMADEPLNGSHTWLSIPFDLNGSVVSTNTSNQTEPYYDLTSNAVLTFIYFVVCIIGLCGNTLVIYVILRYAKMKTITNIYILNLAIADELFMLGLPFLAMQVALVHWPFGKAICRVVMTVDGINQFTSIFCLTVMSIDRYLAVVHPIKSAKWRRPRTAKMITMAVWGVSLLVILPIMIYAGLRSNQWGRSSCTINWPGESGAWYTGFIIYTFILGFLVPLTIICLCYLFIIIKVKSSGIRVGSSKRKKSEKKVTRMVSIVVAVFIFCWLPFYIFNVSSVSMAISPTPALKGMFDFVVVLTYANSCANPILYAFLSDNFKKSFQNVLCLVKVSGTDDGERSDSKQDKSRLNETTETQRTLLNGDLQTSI

In data set [1], `CO/N=C/c1ccnc(-c2ccc3ncc(-c4cc(C)cc(F)c4)c(N4CC[C@@H]5NCCO[C@H]5C4)c3c2)c1N` [Compound 1-2, 2-{4-[(4aS,8aS)-octahydro-1H-pyrido[3,4-b][1,4]oxazin-6-yl]-3-(3-fluoro-5-methylphenyl)quinolin-6-yl}-4-[(1E)-(methoxyimino)methyl]pyridin-3-amine] displayed an EC50 of less than 10 nM.

In data set [1], `O/N=C/c1cccc(-c2ccc3ncc(-c4cc(F)cc(F)c4)c(N4CC[C@@H]5NCCO[C@H]5C4)c3c2)c1O` [Compound 1-1, 2-{4-[(4aS,8aS)-octahydro-1H-pyrido[3,4-b][1,4]oxazin-6-yl]-3-(3,5-difluorophenyl)quinolin-6-yl}-6-[(1E)-(hydroxyimino)methyl]phenol] registered an EC50 of less than 10 nM.

`Cc1cc(F)cc(-c2cnc3ccc(-c4nccc(C#N)c4N)cc3c2N2CC[C@@H]3NCCO[C@H]3C2)c1` [Compound 1-4, 2-{4-[(4aS,8aS)-octahydro-1H-pyrido[3,4-b][1,4]oxazin-6-yl]-3-(3-fluoro-5-methylphenyl)quinolin-6-yl}-3-aminopyridine-4-carbonitrile] registered an EC50 in data set [1] of less than 10 nM.

In data set [1], `Cc1cc(F)cc(-c2cnc3cc(F)c(-c4cccc(C#N)c4O)cc3c2N2CCC(N)CC2)c1` [Compound 1-10, 3-[4-(4-aminopiperidin-1-yl)-7-fluoro-3-(3-fluoro-5-methylphenyl)quinolin-6-yl]-2-hydroxybenzonitrile] had an EC50 of less than 10 nM.

In data set [1], `Cc1ccnc(-c2ccc3ncc(-c4cccc(F)c4)c(N4CC[C@@H]5NCCO[C@H]5C4)c3c2)c1N` [Compound 1-8, 2-{4-[(4aS,8aS)-octahydro-1H-pyrido[3,4-b][1,4]oxazin-6-yl]-3-(3-fluorophenyl)quinolin-6-yl}-4-methylpyridin-3-amine] gave an EC50 of less than 10 nM.

In data set [1], `CO/N=C/c1ccnc(-c2ccc3ncc(-c4cc(F)cc(Cl)c4)c(N4CC[C@@H]5NCCO[C@H]5C4)c3c2)c1N` [Compound 1-3, 2-{4-[(4aS,8aS)-octahydro-1H-pyrido[3,4-b][1,4]oxazin-6-yl]-3-(3-chloro-5-fluorophenyl)quinolin-6-yl}-4-[(1E)-(methoxyimino)methyl]pyridin-3-amine] registered a half-maximal effective concentration (EC50) of less than 10 nM.

`Cc1cc(F)cc(-c2cnc3ccc(-c4cccc(C#N)c4O)c(F)c3c2N2CCC(N)CC2)c1` [Compound 1-9, 3-[4-(4-aminopiperidin-1-yl)-5-fluoro-3-(3-fluoro-5-methylphenyl)quinolin-6-yl]-2-hydroxybenzonitrile]: in data set [1], the EC50 was less than 10 nM.

In turn, `N#Cc1ccnc(-c2ccc3ncc(-c4cccc(F)c4)c(N4CC[C@@H]5NCCO[C@H]5C4)c3c2)c1N` [Compound 1-7, 2-{4-[(4aS,8aS)-octahydro-1H-pyrido[3,4-b][1,4]oxazin-6-yl]-3-(3-fluorophenyl)quinolin-6-yl}-3-aminopyridine-4-carbonitrile] displayed an EC50 in data set [1] of less than 10 nM.

The compound `N#Cc1cccc(-c2ccc3ncc(-c4cc(F)cc(F)c4)c(N4CCC(N)CC4)c3c2)c1O` [Compound A, 3-(4-(4-amino-piperidin-1-yl)-3-(3,5-difluoro-phenyl)-quinolin-6-yl)-2-hydroxy-benzonitrile] had an EC50 in data set [1] of less than 10 nM. The results for the solubility at 2 days in data set [2] (setting [5]) and in data set [2] (setting [6]) were 2430 µg/mL (≈ 5320 µM) and 13 µg/mL (≈ 28.5 µM), respectively. The “Solubility in Water” value in data set [2] (water, listed as Compound A (free base)) stood at 5 µg/mL (≈ 11 µM).

`Nc1c(/C=N/O)ccnc1-c1ccc2ncc(-c3cc(F)cc(F)c3)c(N3CC[C@@H]4NCCO[C@H]4C3)c2c1` [Compound 1-6, 2-{4-[(4aS,8aS)-octahydro-1H-pyrido[3,4-b][1,4]oxazin-6-yl]-3-(3,5-difluorophenyl)quinolin-6-yl}-4-[(1E)-(hydroxyimino)methyl]pyridin-3-amine] displayed an EC50 in data set [1] of less than 10 nM.

Consider `N#Cc1ccnc(-c2ccc3ncc(-c4cc(F)cc(Cl)c4)c(N4CC[C@@H]5NCCO[C@H]5C4)c3c2)c1N` [Compound 1-5, 2-{4-[(4aS,8aS)-octahydro-1H-pyrido[3,4-b][1,4]oxazin-6-yl]-3-(3-chloro-5-fluorophenyl)quinolin-6-yl}-3-aminopyridine-4-carbonitrile], for which, in data set [1], the EC50 was less than 10 nM.

As for `Cl.N#Cc1cccc(-c2ccc3ncc(-c4cc(F)cc(F)c4)c(N4CCC(N)CC4)c3c2)c1O` [Compound A-HCl, 3-[4-(4-amino-piperidin-1-yl)-3-(3,5-difluoro-phenyl)-quinolin-6-yl]-2-hydroxy-benzonitrile monohydrochloride], the solubility at 2 days in data set [2] (setting [5]) is 2120 µg/mL; in data set [2] (setting [6]), 10 µg/mL; in data set [2] (water, water, water, read-out: Solubility in Water), 830 µg/mL. In addition, the “XRPD after DVS analysis” value in data set [3] is “unchanged”. Moreover, the reversible water uptake in data set [3] (between 2 and 95% RH) is reported as approximately 4.5 % w/w; in data set [3] (between 15 and 75% RH) it was approximately 2.3 % w/w. Further, the “temperature up to which the solid is intact” value in data set [4] is “up to 200 °C”.

With `N#Cc1cccc(-c2ccc3ncc(-c4cc(F)cc(F)c4)c(N4CCC(N)CC4)c3c2)c1O` [Compound A-2HCl, 3-[4-(4-amino-piperidin-1-yl)-3-(3,5-difluoro-phenyl)-quinolin-6-yl]-2-hydroxy-benzonitrile dihydrochloride], the “Solubility in FaSSGF” value in data set [2] (Fasted State Simulated Gastric Fluid, dihydrochloride) is 3690 µg/mL. Besides, in data set [2] (Fasted State Simulated Intestinal Fluid, dihydrochloride), the “Solubility in FaSSIF” value is 11 µg/mL. For the same compound, in data set [2] (water, dihydrochloride), the “Solubility in Water” value was found to be 5630 µg/mL. Moreover, in data set [3], the “XRPD after DVS analysis” value is “unchanged”. For the same compound, the reversible water uptake in data set [3] (between 2 and 95% RH) is approximately 18 % w/w; in data set [3] (between 15 and 75% RH) it was approximately 9 % w/w.
